Experimental data as given in US20240140965A1, “TRICYCLIC PESTICIDAL COMPOUNDS” (priority 2021, published 2024).

Experiments:
Format in all cases: in vivo
[1] = system: boll weevil (Anthonomus grandis); experiment: Boll weevil (Anthonomus grandis) egg and larval mortality, insect diet microtiter plate; conditions: 120 h, read-out: mortality in comparison with untreated controls
Procedure: For evaluating control of boll weevil (Anthonomus grandis) the test unit consisted of 96-well-microtiter plates containing an insect diet and 5-10 A. grandis eggs. The compounds were formulated using a solution containing 75% v/v water and 25% v/v DMSO. Different concentrations of formulated compounds were sprayed onto the insect diet at 5 μl, using a custom built micro atomizer, at two replications. After application, microtiter plates were incubated at about 25±1° C. and about 75±5% relative humidity for 5 days. Egg and larval mortality was then visually assessed.

[2] = system: Southern Armyworm (Spodoptera eridania), 2nd instar larvae; experiment: Southern armyworm (Spodoptera eridania) 2nd instar larvae mortality on sprayed lima bean plants; conditions: 96 h, read-out: mortality in comparison with untreated controls
Procedure: The active compounds were formulated by a Tecan liquid handler in 100% cyclohexanone as a 10,000 ppm solution supplied in tubes. The 10,000 ppm solution was serially diluted in 100% cyclohexanone to make interim solutions. These served as stock solutions for which final dilutions were made by the Tecan in 50% acetone:50% water (v/v) into 10 or 20 ml glass vials. A nonionic surfactant (Kinetic®) was included in the solution at a volume of 0.01% (v/v). The vials were then inserted into an automated electrostatic sprayer equipped with an atomizing nozzle for application to plants/insects. Lima bean plants (variety Sieva) were grown 2 plants to a pot and selected for treatment at the 1st true leaf stage. Test solutions were sprayed onto the foliage by an automated electrostatic plant sprayer equipped with an atomizing spray nozzle. The plants were dried in the sprayer fume hood and then removed from the sprayer. Each pot was placed into perforated plastic bags with a zip closure. Ten to 11 armyworm larvae were placed into the bag and the bags zipped closed. Test plants were maintained in a growth room at about 25° C. and about 20-40% relative humidity for 4 days, avoiding direct exposure to fluorescent light (14:10 light:dark photoperiod) to prevent trapping of heat inside the bags. Mortality and reduced feeding were assessed 4 days after treatment, compared to untreated control plants.

[3] = system: tobacco budworm (Heliothis virescens); experiment: Tobacco budworm (Heliothis virescens) egg and larval mortality, insect diet microtiter plate; conditions: 120 h, read-out: mortality in comparison with untreated controls
Procedure: For evaluating control of tobacco budworm (Heliothis virescens) the test unit consisted of 96-well-microtiter plates containing an insect diet and 15-25 H. virescens eggs.
The compounds were formulated using a solution containing 75% v/v water and 25% v/v DMSO. Different concentrations of formulated compounds were sprayed onto the insect diet at 10 μl, using a custom built micro atomizer, at two replications. After application, microtiter plates were incubated at about 28±1° C. and about 80±5% relative humidity for 5 days. Egg and larval mortality was then visually assessed.

[4] = system: yellow fever mosquito (Aedes aegypti); experiment: whole plant or invertebrate; conditions: 48 h, larval mortality after 2 days, read-out: mortality in comparison with untreated controls
Procedure: For evaluating control of yellow fever mosquito (Aedes aegypti) the test unit consisted of 96-well-microtiter plates containing 200 μl of tap water per well and 5-15 freshly hatched A. aegypti larvae. The active compounds were formulated using a solution containing 75% (v/v) water and 25% (v/v) DMSO. Different concentrations of formulated compounds or mixtures were sprayed onto the insect diet at 2.5 μl, using a custom built micro atomizer, at two replications. After application, microtiter plates were incubated at 28+1° C., 80+5% RH for 2 days. Larval mortality was then visually assessed.

[5] = system: Green Peach Aphid (Myzus persicae); experiment: Green peach aphid (Myzus persicae) mortality on sprayed bell pepper plants; conditions: 120 h, read-out: mortality in comparison with untreated controls
Procedure: The active compounds were formulated by a Tecan liquid handler in 100% cyclohexanone as a 10,000 ppm solution supplied in tubes. The 10,000 ppm solution was serially diluted in 100% cyclohexanone to make interim solutions. These served as stock solutions for which final dilutions were made by the Tecan in 50% acetone:50% water (v/v) into 10or 20 ml glass vials. A nonionic surfactant (Kinetic®) was included in the solution at a volume of 0.01% (v/v). The vials were then inserted into an automated electrostatic sprayer equipped with an atomizing nozzle for application to plants/insects. Bell pepper plants at the first true-leaf stage were infested prior to treatment by placing heavily infested leaves from the main colony on top of the treatment plants. Aphids were allowed to transfer overnight to accomplish an infestation of 30-50 aphids per plant and the host leaves were removed. The infested plants were then sprayed by an automated electrostatic plant sprayer equipped with an atomizing spray nozzle. The plants were dried in the sprayer fume hood, removed, and then maintained in a growth room under fluorescent lighting in a 14:10 light:dark photoperiod at about 25° C. and about 20-40% relative humidity. Aphid mortality on the treated plants, relative to mortality on untreated control plants, was determined after 5 days.

[6] = system: Red Spider Mite (Tetranychus kanzawai); experiment: Red spider mite (Tetranychus kanzawai) mortality on sprayed cowpea beans; conditions: 72 h, read-out: mortality in comparison with untreated controls
Procedure: The active compound is dissolved at the desired concentration in a mixture of 1:1 (vol:vol) distilled water:acetone. Add surfactant (Kinetic) is added at a rate of 0.01% (vol/vol). The test solution is prepared at the day of use. Potted cowpea beans of 4-5 days of age are cleaned with tap water and sprayed with 1-2 ml of the test solution using air driven DeVilbiss® hand atomizer at 20-30 psi (≈1.38 to 2.07 bar). The treated plants are allowed to air dry and afterwards inoculated with 30 or more mites by clipping a cassava leaf section from rearing population. Treated plants are placed inside a holding room at about 25-26° C. and about 65-70% relative humidity. Estimate percent mortality is assessed 72 hours after treatment.

CCS(=O)(=O)c1cc(-c2ccc(F)cc2)cnc1-c1cn2c(n1)SCc1c-2cccc1C(F)(F)F [Compound I.1, 2-[3-ethylsulfonyl-5-(4-fluorophenyl)-2-pyridyl]-6-(trifluoromethyl)-5H-imidazo[1,2-a][3,1]benzothiazine]
> 70%: mortality at 10 ppm [1] | mortality at 1 ppm [2] | mortality at 30 ppm [3] | mortality at 80 ppm [4]

CCS(=O)(=O)c1cc(-c2ccc(F)cc2)cnc1-c1cn2c(n1)CSc1c-2cccc1C(F)(F)F [Compound I.2, 2-[3-ethylsulfonyl-5-(4-fluorophenyl)-2-pyridyl]-6-(trifluoromethyl)-4H-imidazo[2,1-c][1,4]benzothiazine]
> 70%: mortality at 90 ppm [5] | mortality at 10 ppm [1] | mortality at 1 ppm [2] | mortality at 30 ppm [3] | mortality at 80 ppm [4]

CCS(=O)(=O)c1cc(-c2ccc(F)cc2)cnc1-c1cn2c(n1)OCc1c-2cccc1C(F)(F)F [Compound I.3, 2-[3-ethylsulfonyl-5-(4-fluorophenyl)-2-pyridyl]-6-(trifluoromethyl)-5H-imidazo[1,2-a][3,1]benzoxazine]
> 70%: mortality at 90 ppm [5] | mortality at 10 ppm [1] | mortality at 1 ppm [2] | mortality at 800 ppm [6] | mortality at 30 ppm [3] | mortality at 80 ppm [4]

CCS(=O)(=O)c1cc(-c2ccc(F)cc2)cnc1-c1cn2c(n1)COc1c-2cccc1C(F)(F)F [Compound I.4, 2-[3-ethylsulfonyl-5-(4-fluorophenyl)-2-pyridyl]-6-(trifluoromethyl)-4H-imidazo[2,1-c][1,4]benzoxazine]
> 70%: mortality at 10 ppm [1] | mortality at 1 ppm [2] | mortality at 30 ppm [3] | mortality at 80 ppm [4]

CCS(=O)(=O)c1cc(N=S(C)(C)=O)cnc1-c1cn2c(n1)COc1c-2cccc1C(F)(F)F [Compound I.5, [5-ethylsulfonyl-6-[6-(trifluoromethyl)-4H-imidazo[2,1-c][1,4]benzoxazin-2-yl]-3-pyridyl]imino-dimethyl-oxo-lambda6-sulfane]
> 70%: mortality at 250 ppm [5] | mortality at 250 ppm [1] | mortality at 250 ppm ([4]; 250 ppm)
